Values joined by “and” are separate entries in the source; they are usually repeats but may differ in a detail not shown here. Equal entries are not always repeated.
How the values were obtained:
[1] = target: Bromodomain-containing protein 9 (Homo sapiens) (UniProt Q9H8M2); experiment: Alphascreen assay. Domain start/stop: L14-Q143; conditions: Compound concentration 4.0 uM, Protein concentration 5.0 uM
[2] = target: Transcription intermediary factor 1-beta (Homo sapiens) (UniProt Q13263); conditions: Compound concentration 10.0 uM, Protein concentration 2.0 uM
[3] = target: Transcription initiation factor TFIID subunit 1 (Homo sapiens) (UniProt P21675); conditions: Compound concentration 10.0 uM, Protein concentration 2.0 uM
Peregrin (Homo sapiens) [4] = target: T1, Peregrin (Homo sapiens) (UniProt P55201); conditions: Compound concentration 10.0 uM, Protein concentration 2.0 uM
T1 sequence (whole entry): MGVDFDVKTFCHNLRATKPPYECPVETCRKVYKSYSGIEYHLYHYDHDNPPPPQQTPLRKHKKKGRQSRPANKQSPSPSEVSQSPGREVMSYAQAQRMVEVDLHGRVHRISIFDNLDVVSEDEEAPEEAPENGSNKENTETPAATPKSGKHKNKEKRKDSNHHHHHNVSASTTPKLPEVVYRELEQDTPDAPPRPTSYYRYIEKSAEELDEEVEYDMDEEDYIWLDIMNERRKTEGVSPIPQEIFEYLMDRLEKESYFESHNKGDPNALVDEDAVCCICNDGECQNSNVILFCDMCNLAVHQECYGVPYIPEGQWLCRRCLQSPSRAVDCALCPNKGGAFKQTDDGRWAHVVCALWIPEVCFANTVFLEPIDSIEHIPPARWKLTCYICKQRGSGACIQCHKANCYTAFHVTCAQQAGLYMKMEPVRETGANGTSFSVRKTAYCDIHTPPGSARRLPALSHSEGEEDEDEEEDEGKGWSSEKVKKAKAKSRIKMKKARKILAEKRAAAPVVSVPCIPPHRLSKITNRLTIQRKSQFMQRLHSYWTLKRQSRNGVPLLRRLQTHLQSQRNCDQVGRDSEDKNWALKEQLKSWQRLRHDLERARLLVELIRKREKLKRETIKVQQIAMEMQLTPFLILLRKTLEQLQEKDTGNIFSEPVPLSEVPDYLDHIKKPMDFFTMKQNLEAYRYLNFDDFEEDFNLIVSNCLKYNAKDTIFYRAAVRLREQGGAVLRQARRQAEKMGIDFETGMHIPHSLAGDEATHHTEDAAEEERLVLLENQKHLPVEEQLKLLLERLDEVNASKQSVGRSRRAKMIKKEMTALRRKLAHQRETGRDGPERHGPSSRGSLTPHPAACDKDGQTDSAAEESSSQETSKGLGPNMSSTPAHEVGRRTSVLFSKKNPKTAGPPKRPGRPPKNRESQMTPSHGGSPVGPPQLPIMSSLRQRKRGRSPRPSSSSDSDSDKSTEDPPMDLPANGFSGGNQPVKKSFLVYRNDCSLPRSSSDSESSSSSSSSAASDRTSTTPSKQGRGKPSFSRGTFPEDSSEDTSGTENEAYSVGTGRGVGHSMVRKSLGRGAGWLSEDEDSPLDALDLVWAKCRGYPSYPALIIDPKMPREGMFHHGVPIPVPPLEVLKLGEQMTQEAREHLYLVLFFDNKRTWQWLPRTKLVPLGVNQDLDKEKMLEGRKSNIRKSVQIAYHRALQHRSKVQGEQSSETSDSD

[5] = target: Bromodomain and PHD finger-containing protein 3 (Homo sapiens) (UniProt Q9ULD4); conditions: Compound concentration 10.0 uM, Protein concentration 2.0 uM
[6] = target: Transcription initiation factor TFIID subunit 1 (Homo sapiens) (UniProt P21675); conditions: Compound concentration 10.0 uM, Protein concentration 2.0 uM; remark: listed apart in the source
[7] = target: Histone acetyltransferase KAT2B (Homo sapiens) (UniProt Q92831); conditions: Compound concentration 10.0 uM, Protein concentration 2.0 uM
[8] = target: Protein polybromo-1 (Homo sapiens) (UniProt Q86U86); conditions: Compound concentration 10.0 uM, Protein concentration 2.0 uM
[9] = target: Bromodomain-containing protein 2 (Homo sapiens) (UniProt P25440); conditions: Compound concentration 10.0 uM, Protein concentration 2.0 uM
[10] = target: Tyrosine-protein kinase BAZ1B (Homo sapiens) (UniProt Q9UIG0); conditions: Compound concentration 10.0 uM, Protein concentration 2.0 uM
[11] = target: Bromodomain-containing protein 9 (Homo sapiens) (UniProt Q9H8M2); conditions: Compound concentration 10.0 uM, Protein concentration 2.0 uM
[12] = target: Transcription initiation factor TFIID subunit 1-like (Homo sapiens) (UniProt Q8IZX4); conditions: Compound concentration 10.0 uM, Protein concentration 2.0 uM
[13] = target: Nucleosome-remodeling factor subunit BPTF (Homo sapiens) (UniProt Q12830)
Description: Alphascreen assay. Domain start/stop: S2791-H2911

[14] = target: Histone acetyltransferase KAT2A (Homo sapiens) (UniProt Q92830); conditions: Compound concentration 10.0 uM, Protein concentration 2.0 uM
[15] = target: Bromodomain adjacent to zinc finger domain protein 2A (Homo sapiens) (UniProt Q9UIF9); conditions: Compound concentration 10.0 uM, Protein concentration 2.0 uM
[16] = target: Bromodomain adjacent to zinc finger domain protein 2B (Homo sapiens) (UniProt Q9UIF8); conditions: Compound concentration 10.0 uM, Protein concentration 2.0 uM
[17] = target: Protein polybromo-1 (Homo sapiens) (UniProt Q86U86); conditions: Compound concentration 10.0 uM, Protein concentration 2.0 uM; remark: listed apart in the source
[18] = target: Chromatin remodeling regulator CECR2 (Homo sapiens) (UniProt Q9BXF3); conditions: Compound concentration 4.0 uM, Protein concentration 19.0 uM
[19] = target: Bromodomain and WD repeat-containing protein 3 (Homo sapiens) (UniProt Q6RI45); conditions: Compound concentration 10.0 uM, Protein concentration 2.0 uM
[20] = target: Bromodomain testis-specific protein (Homo sapiens) (UniProt Q58F21); conditions: Compound concentration 10.0 uM, Protein concentration 2.0 uM
[21] = target: Transcription intermediary factor 1-alpha (Homo sapiens) (UniProt O15164); conditions: Compound concentration 10.0 uM, Protein concentration 2.0 uM
[22] = target: Transcription initiation factor TFIID subunit 1-like (Homo sapiens) (UniProt Q8IZX4); conditions: Compound concentration 10.0 uM, Protein concentration 2.0 uM; remark: listed apart in the source
[23] = target: Protein polybromo-1 (Homo sapiens) (UniProt Q86U86); conditions: Compound concentration 10.0 uM, Protein concentration 2.0 uM; remark: listed apart in the source
[24] = target: Bromodomain-containing protein 3 (Homo sapiens) (UniProt Q15059); conditions: Compound concentration 10.0 uM, Protein concentration 2.0 uM
[25] = target: Protein polybromo-1 (Homo sapiens) (UniProt Q86U86); conditions: Compound concentration 10.0 uM, Protein concentration 2.0 uM; remark: listed apart in the source
[26] = target: ATPase family AAA domain-containing protein 2 (Homo sapiens) (UniProt Q6PL18); conditions: Compound concentration 10.0 uM, Protein concentration 2.0 uM
[27] = target: Nucleosome-remodeling factor subunit BPTF (Homo sapiens) (UniProt Q12830); conditions: Compound concentration 10.0 uM, Protein concentration 2.0 uM
[28] = target: ATPase family AAA domain-containing protein 2B (Homo sapiens) (UniProt Q9ULI0); conditions: Compound concentration 10.0 uM, Protein concentration 2.0 uM
[29] = target: Histone-lysine N-methyltransferase 2A (Homo sapiens) (UniProt Q03164); conditions: Compound concentration 10.0 uM, Protein concentration 2.0 uM
[30] = target: Bromodomain-containing protein 4 (Homo sapiens) (UniProt O60885); experiment: Alphascreen assay. Domain start/stop: N44-E168; conditions: Compound concentration 25.0 uM, Protein concentration 6.25 uM
[31] = target: Protein polybromo-1 (Homo sapiens) (UniProt Q86U86); conditions: Compound concentration 10.0 uM, Protein concentration 2.0 uM; remark: listed apart in the source
[32] = target: Bromodomain-containing protein 3 (Homo sapiens) (UniProt Q15059); conditions: Compound concentration 10.0 uM, Protein concentration 2.0 uM; remark: listed apart in the source
[33] = target: Bromodomain-containing protein 4 (Homo sapiens) (UniProt O60885); conditions: Compound concentration 10.0 uM, Protein concentration 2.0 uM
[34] = target: Bromodomain and WD repeat-containing protein 1 (Homo sapiens) (UniProt Q9NSI6); conditions: Compound concentration 10.0 uM, Protein concentration 2.0 uM
[35] = target: SWI/SNF-related matrix-associated actin-dependent regulator of chromatin subfamily A member 2 (Homo sapiens) (UniProt P51531); conditions: Compound concentration 10.0 uM, Protein concentration 2.0 uM
Peregrin (Homo sapiens) [36] = target: T1, Peregrin (Homo sapiens); experiment: Alphascreen assay. Domain start/stop: M626-G740; conditions: Protein concentration 50.0 uM
[37] = target: CREB-binding protein (Homo sapiens) (UniProt Q92793); conditions: Compound concentration 10.0 uM, Protein concentration 2.0 uM
[38] = target: PH-interacting protein (Homo sapiens) (UniProt Q8WWQ0); conditions: Compound concentration 50.0 uM, Protein concentration 0.025 uM
[39] = target: E3 ubiquitin-protein ligase TRIM33 (Homo sapiens) (UniProt Q9UPN9); experiment: Thermal Shift Assay. Domain start/stop: D882-P1073; conditions: Compound concentration 10.0 uM, Protein concentration 2.0 uM
[40] = target: Protein polybromo-1 (Homo sapiens) (UniProt Q86U86); conditions: Compound concentration 10.0 uM, Protein concentration 2.0 uM; remark: listed apart in the source
[41] = target: Bromodomain-containing protein 7 (Homo sapiens) (UniProt Q9NPI1); conditions: Compound concentration 10.0 uM, Protein concentration 2.0 uM
[42] = target: Nuclear body protein SP140 (Homo sapiens) (UniProt Q13342); conditions: Compound concentration 10.0 uM, Protein concentration 2.0 uM
[43] = target: SWI/SNF-related matrix-associated actin-dependent regulator of chromatin subfamily A member 4 (Homo sapiens) (UniProt P51532); conditions: Compound concentration 10.0 uM, Protein concentration 2.0 uM
[44] = target: Nuclear body protein SP140-like protein (Homo sapiens) (UniProt Q9H930); conditions: Compound concentration 10.0 uM, Protein concentration 2.0 uM
[45] = target: Chromatin remodeling regulator CECR2 (Homo sapiens) (UniProt Q9BXF3); conditions: Compound concentration 10.0 uM, Protein concentration 2.0 uM
[46] = target: Chromatin remodeling regulator CECR2 (Homo sapiens) (UniProt Q9BXF3); conditions: Compound concentration 10.0 uM, Protein concentration 2.0 uM; remark: listed apart in the source
[47] = target: Histone acetyltransferase p300 (Homo sapiens) (UniProt Q09472); conditions: Compound concentration 10.0 uM, Protein concentration 2.0 uM
[48] = target: Bromodomain testis-specific protein (Homo sapiens) (UniProt Q58F21); conditions: Compound concentration 10.0 uM, Protein concentration 2.0 uM; remark: listed apart in the source
[49] = target: Bromodomain-containing protein 2 (Homo sapiens) (UniProt P25440); conditions: Compound concentration 10.0 uM, Protein concentration 2.0 uM; remark: listed apart in the source
[50] = target: Histone-lysine N-methyltransferase ASH1L (Homo sapiens) (UniProt Q9NR48); conditions: Compound concentration 10.0 uM, Protein concentration 2.0 uM
[51] = target: Bromodomain adjacent to zinc finger domain protein 1A (Homo sapiens) (UniProt Q9NRL2); conditions: Compound concentration 10.0 uM, Protein concentration 2.0 uM
Peregrin (Homo sapiens) [52] = target: T1, Peregrin (Homo sapiens); conditions: Compound concentration 10.0 uM, Protein concentration 2.0 uM; remark: listed apart in the source
[53] = target: PH-interacting protein (Homo sapiens) (UniProt Q8WWQ0); conditions: Compound concentration 10.0 uM, Protein concentration 2.0 uM
[54] = target: Bromodomain-containing protein 1 (Homo sapiens) (UniProt O95696); conditions: Compound concentration 10.0 uM, Protein concentration 2.0 uM

Chain of Chromatin remodeling regulator CECR2 (Homo sapiens) (Q9BXF3 whole entry, looked up): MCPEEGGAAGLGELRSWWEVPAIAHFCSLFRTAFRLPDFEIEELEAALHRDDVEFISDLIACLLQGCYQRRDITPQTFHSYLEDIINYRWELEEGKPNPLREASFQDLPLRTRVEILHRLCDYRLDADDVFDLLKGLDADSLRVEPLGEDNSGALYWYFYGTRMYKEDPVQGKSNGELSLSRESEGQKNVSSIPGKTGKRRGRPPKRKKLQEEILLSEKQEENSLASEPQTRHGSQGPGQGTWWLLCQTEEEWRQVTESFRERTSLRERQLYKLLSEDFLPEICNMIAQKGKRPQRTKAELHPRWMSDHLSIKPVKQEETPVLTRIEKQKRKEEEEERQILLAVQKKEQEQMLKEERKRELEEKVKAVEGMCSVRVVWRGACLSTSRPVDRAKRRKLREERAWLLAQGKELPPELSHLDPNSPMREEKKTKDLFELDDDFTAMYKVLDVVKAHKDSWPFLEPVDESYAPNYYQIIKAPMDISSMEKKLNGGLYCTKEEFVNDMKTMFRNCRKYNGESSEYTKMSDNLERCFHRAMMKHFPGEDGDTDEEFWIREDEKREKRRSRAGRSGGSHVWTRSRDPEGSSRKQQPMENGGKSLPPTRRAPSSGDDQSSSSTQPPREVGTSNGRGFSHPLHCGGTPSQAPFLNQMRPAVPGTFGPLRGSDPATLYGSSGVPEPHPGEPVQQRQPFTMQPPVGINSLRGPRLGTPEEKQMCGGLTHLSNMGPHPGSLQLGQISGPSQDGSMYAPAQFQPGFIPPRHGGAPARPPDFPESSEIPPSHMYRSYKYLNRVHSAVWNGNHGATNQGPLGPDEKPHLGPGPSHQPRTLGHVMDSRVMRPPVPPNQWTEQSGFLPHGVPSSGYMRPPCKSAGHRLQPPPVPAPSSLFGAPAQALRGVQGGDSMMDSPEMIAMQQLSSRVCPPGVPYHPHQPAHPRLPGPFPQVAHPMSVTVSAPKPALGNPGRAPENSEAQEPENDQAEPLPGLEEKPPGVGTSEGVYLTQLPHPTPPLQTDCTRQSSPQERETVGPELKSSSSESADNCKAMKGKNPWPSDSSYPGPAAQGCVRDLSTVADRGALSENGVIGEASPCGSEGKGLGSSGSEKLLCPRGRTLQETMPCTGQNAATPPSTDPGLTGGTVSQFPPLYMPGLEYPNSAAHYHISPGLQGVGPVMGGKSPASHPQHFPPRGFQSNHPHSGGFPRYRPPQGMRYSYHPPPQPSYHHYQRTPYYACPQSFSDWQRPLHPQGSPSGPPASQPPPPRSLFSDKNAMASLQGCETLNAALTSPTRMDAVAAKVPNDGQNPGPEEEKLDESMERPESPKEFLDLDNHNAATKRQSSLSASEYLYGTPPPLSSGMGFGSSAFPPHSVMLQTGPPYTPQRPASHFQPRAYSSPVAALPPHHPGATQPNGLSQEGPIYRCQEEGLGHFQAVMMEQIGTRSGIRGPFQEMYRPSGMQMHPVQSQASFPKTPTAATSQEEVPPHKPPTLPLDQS
Chain of Bromodomain-containing protein 9 (Homo sapiens) (Q9H8M2 whole entry): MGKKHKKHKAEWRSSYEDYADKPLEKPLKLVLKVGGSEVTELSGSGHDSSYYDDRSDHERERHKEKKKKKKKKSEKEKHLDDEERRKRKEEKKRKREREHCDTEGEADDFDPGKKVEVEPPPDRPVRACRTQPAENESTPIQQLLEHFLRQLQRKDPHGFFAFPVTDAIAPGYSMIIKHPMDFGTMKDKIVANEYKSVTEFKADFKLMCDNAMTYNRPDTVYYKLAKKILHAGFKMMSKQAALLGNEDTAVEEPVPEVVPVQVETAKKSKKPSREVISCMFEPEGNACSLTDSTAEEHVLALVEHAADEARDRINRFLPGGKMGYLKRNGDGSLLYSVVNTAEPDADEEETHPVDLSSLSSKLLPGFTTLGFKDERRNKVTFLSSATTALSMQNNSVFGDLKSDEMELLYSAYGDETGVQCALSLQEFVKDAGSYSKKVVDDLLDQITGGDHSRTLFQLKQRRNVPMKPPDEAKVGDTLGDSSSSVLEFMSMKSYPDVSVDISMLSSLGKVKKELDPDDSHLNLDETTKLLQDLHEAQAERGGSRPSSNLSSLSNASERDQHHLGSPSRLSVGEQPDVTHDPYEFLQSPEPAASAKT
Chain of Protein polybromo-1 (Homo sapiens) (Q86U86 whole entry, the tested form may be a part): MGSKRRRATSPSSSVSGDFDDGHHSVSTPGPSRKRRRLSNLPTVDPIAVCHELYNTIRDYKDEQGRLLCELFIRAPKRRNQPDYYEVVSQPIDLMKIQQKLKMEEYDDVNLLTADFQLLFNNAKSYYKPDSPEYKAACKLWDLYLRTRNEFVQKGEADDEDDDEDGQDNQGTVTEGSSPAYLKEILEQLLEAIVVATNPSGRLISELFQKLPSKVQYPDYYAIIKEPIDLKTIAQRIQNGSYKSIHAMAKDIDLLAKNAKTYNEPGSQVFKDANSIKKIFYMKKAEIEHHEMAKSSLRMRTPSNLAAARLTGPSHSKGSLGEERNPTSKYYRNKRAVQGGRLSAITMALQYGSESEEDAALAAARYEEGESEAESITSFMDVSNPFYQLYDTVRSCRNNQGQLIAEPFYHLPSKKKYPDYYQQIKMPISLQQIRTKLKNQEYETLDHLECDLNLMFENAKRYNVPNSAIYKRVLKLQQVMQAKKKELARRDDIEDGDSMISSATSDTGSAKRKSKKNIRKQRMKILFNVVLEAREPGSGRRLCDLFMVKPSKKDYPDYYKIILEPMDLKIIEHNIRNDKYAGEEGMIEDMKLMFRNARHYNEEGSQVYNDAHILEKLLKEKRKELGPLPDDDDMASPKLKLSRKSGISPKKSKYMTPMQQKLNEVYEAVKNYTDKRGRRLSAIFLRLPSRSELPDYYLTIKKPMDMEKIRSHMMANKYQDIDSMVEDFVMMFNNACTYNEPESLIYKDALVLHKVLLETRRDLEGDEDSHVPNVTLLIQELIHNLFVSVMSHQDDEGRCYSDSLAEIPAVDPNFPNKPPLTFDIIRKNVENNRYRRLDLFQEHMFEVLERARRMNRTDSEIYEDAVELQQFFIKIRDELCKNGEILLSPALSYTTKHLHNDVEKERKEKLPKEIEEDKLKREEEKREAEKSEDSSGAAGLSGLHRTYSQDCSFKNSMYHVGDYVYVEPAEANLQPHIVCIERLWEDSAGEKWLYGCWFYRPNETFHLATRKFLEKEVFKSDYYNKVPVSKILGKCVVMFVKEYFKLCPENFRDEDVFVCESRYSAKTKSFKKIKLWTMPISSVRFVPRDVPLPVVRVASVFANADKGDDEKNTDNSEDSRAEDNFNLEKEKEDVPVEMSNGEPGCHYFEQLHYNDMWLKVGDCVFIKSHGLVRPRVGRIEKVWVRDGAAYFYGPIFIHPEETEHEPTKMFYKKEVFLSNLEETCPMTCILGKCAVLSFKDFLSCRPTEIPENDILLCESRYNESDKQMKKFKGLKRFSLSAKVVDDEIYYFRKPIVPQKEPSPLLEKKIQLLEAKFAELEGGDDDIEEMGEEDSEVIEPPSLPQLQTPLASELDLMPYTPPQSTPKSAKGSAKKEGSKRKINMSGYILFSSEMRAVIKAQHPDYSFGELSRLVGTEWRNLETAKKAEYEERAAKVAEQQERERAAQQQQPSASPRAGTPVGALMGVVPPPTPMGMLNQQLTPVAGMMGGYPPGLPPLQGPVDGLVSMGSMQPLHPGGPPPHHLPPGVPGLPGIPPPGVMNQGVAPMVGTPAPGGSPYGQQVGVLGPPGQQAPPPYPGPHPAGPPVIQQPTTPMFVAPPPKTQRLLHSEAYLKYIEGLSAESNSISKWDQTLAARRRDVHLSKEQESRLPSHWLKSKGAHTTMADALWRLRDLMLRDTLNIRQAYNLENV
Chain of Bromodomain-containing protein 2 (Homo sapiens) (P25440 whole entry, looked up): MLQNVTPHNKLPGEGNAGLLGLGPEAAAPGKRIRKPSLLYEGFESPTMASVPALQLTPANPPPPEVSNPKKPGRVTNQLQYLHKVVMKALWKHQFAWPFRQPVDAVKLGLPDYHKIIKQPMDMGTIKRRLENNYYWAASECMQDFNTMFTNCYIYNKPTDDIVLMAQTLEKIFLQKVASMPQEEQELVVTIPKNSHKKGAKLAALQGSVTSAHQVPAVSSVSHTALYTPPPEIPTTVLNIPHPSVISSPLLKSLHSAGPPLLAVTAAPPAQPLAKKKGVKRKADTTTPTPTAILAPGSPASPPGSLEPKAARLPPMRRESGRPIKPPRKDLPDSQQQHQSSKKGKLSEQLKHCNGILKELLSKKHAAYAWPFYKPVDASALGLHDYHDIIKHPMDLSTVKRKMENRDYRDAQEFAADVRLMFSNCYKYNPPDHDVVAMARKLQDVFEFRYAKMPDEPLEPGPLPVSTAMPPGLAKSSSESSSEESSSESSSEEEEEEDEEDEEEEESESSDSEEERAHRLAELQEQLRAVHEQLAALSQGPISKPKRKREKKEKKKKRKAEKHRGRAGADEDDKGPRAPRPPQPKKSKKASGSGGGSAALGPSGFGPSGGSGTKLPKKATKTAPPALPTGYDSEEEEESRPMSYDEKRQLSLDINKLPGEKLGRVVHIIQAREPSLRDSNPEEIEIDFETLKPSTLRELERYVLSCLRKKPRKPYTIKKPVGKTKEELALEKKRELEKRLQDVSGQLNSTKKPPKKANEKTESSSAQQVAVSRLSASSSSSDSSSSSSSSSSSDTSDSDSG

Work on `Cc1cc(=O)n(C)c2cc(N3C(=O)CC[C@@H](NS(=O)(=O)CC(C)C)[C@@H]3c3ccc(Cl)cc3)ccc12` yielded an inhibition [1] of 95.6%, a ΔTm [2] of 0.2 °C and a ΔTm [3] of 1.22 °C. It also gave a ΔTm (Peregrin (Homo sapiens) [4]) of -0.19 °C, a ΔTm [5] of -0.05 °C and a ΔTm [6] of 0.33 °C. It also gave a ΔTm [7] of 0.09 °C, a ΔTm [8] of 0.01 °C and a ΔTm [9] of -0.14 °C. For the same compound, the ΔTm [10] was -0.45 °C, the ΔTm [11] was 5.28 °C and 8.25 °C and 6.82 °C and the ΔTm [12] was 0.27 °C. For the same compound, the inhibition ([13]; Compound concentration 0.25 uM, Protein concentration 19.0 uM) was 3.67%, the inhibition ([13]; Compound concentration 0.25 uM, Protein concentration 20.0 uM) was 7.02% and the inhibition ([13]; Compound concentration 4.0 uM, Protein concentration 19.0 uM) was 7.64%. For the same compound, the ΔTm [14] was -0.21 °C, the ΔTm [15] was -0.38 °C and the ΔTm [16] was -0.02 °C. For the same compound, the ΔTm [17] was -0.12 °C, the inhibition [18] was 10.7% and the ΔTm [19] was 0.82 °C. For the same compound, the ΔTm [20] was 0.17 °C, the ΔTm [21] was -0.09 °C and the ΔTm [22] was 0.24 °C. The ΔTm [23] was 0.14 °C, the ΔTm [24] was 0.15 °C and the ΔTm [25] was 0.16 °C. It also gave a ΔTm [26] of 0.02 °C, a ΔTm [27] of 1.82 °C and a ΔTm [28] of 0.35 °C. The ΔTm [29] was 0.6 °C, the inhibition [30] was 4.77% and the ΔTm [31] was 0.76 °C. For the same compound, the ΔTm [32] was -0.26 °C, the ΔTm [33] was -0.08 °C and the ΔTm [34] was -0.43 °C. The ΔTm [35] was 0.44 °C, the inhibition (Peregrin (Homo sapiens) [36]; Compound concentration 1.25 uM) was 1.84% and the inhibition (Peregrin (Homo sapiens) [36]; Compound concentration 4.0 uM) was 3.88%. For the same compound, the ΔTm [37] was 0.17 °C and -0.28 °C, the inhibition [38] was 1.4% and 14.2% and the ΔTm [39] was 0.14 °C. The ΔTm [40] was 0.15 °C and 0.13 °C, the ΔTm [41] was 10.1 °C and 10.7 °C and the ΔTm [42] was 0.44 °C. It also gave a ΔTm [43] of 0.16 °C, a ΔTm [44] of 0.96 °C and a ΔTm [45] of 0.69 °C. The ΔTm [46] was 0.17 °C, the ΔTm [47] was 0.03 °C and the ΔTm [48] was 0.06 °C. The ΔTm [49] was 0.38 °C, the ΔTm [50] was 0.17 °C and the ΔTm [51] was -0.09 °C. For the same compound, the ΔTm (Peregrin (Homo sapiens) [52]) was -0.09 °C and 0.15 °C, the ΔTm [53] was -0.48 °C and the ΔTm [54] was 0.01 °C.

— ChEMBL document CHEMBL4649991
